This passage reports DC50 and Dmax results from US20220370416A1, “COMPOUNDS AND METHODS FOR TARGETED DEGRADATION OF KRAS” (Arvinas Operations, Inc., priority 2020, published 2022).

In experiment [1] the target is T1, HiBit-KRAS^G12C (Homo sapiens, UniProt P01116, G12C). The experiment is described as follows: HiBit degradation assay in SW1573 HiBit-KRas^G12C cells. As to conditions: 24 hours. Details: expressed in transfected cells; host or cells: SW1573 (clone E6), modified pcDNA3.1 vector, TK promoter. The format is cell-based. The essentials: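 HiBit-KRAS G12C degradation was measured after a 24 h compound exposure (titrated 10 μM–20 nM) in engineered SW1573 cells. Lytic HiBit luminescence, expressed relative to DMSO controls, yielded DC50 and Dmax from 4-parameter fits. Concentrations causing ≥50% loss in alamar blue viability were omitted as cytotoxic.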
T1 sequence (P01116 1-186 isoform P01116-2 G12C limits assumed): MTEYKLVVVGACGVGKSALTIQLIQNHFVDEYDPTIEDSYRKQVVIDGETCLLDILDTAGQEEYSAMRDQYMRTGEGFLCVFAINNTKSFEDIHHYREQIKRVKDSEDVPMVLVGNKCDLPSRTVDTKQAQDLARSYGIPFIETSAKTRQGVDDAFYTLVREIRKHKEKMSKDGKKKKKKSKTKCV
Background: The HiBiT peptide binds its large partner to form an active luciferase.

For experiment [2], the target named is T1, HiBit-KRAS^G12C. The experiment is described as follows: HiBit degradation assay in MiaPaCa-2 HiBit-KRas^G12C cells. The format is cell-based. To be noted: 24 hours; for Dmax: maximum degradation. The essentials:
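DC50 and Dmax come from 4-parameter fits of DMSO-normalized HiBit luminescence after 24 hours' exposure at 37° C to 10 μM–20 nM compound in 0.1% or 0.5% DMSO. Cells: MiaPaCa-2 carrying one endogenously HiBit-tagged KRAS^G12C allele; concentrations causing ≥50% […] viability loss (alamar blue) excluded.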

[3] abbreviates: read-out: KRas^G12C-HiBiT (SW1573; 0.5% DMSO) IC50***, SW1573 HiBit-KRas^G12C, 0.5% DMSO.
Setting [4] is: read-out: KRas^G12C-HiBiT (MiaPaCa; 0.5% DMSO) IC50, MiaPaCa-2 HiBit-KRas^G12C cells, 0.5% DMSO.
The mark [5] stands for this setting: SW1573, SW1573 HiBit-KRas^G12C, 0.5% DMSO, read-out: KRas^G12C-HiBiT (SW1573; 0.5% DMSO) Dmax**.
[6] abbreviates: MIA PaCa-2, MiaPaCa-2 HiBit-KRas^G12C cells, 0.5% DMSO, read-out: KRas^G12C-HiBiT (MiaPaCa; 0.5% DMSO) DMax.
Setting [7] is: SW1573 HiBit-KRas^G12C, 0.1% DMSO, read-out: KRas^G12C-HIBit (SW1573; 0.1% DMSO) DC50*.

Some results are limits rather than exact numbers.

Take `C=C(F)C(=O)N1CCN(c2nc(OCCN3CCC4(CC3)CN(c3cc([C@@H](C(=O)N5C[C@H](O)C[C@H]5C(=O)N[C@@H](C)c5ccc(-c6scnc6C)cc5)C(C)C)on3)C4)nc3c(F)c(-c4cc(O)cc5ccccc45)c(Cl)cc23)C[C@@H]1CC#N` (atropisomer, axis not shown) [Compound 113, (2S,4R)-1-[(2S)-2-(3-{7-[2-({6-chloro-4-[(3S)-3-(cyanomethyl)-4-(2-fluoroprop-2-enoyl)piperazin-1-yl]-8-fluoro-7-(3-hydroxynaphthalen-1-yl)quinazolin-2-yl}oxy)ethyl]-2,7-diazaspiro[3.5]nonan-2-yl}-1,2-oxazol-5-yl)-3-methylbutanoyl]-4-hydroxy-N-[(1S)-1-[4-(4-methyl-1,3-thiazol-5-yl)phenyl]ethyl]pyrrolidine-2-carboxamide]: the DC50 at HiBit-KRAS^G12C [1] (setting [3]) and at HiBit-KRAS^G12C [2] (setting [4]) was above 1000 nM each time.

Take `C=CC(=O)N1CCN(c2nc(OCCN3CC[C@H](COCC(=O)N[C@H](C(=O)N4C[C@H](O)C[C@H]4C(=O)N[C@@H](C)c4ccc(-c5scnc5C)cc4)C(C)(C)C)C3)nc3c(F)c(-c4cc(O)cc5ccccc45)c(Cl)cc23)C[C@@H]1CC#N` [Compound 142, (2S,4R)-1-[(2S)-2-(2-{[(3S)-1-[2-({6-chloro-4-[(3S)-3-(cyanomethyl)-4-(prop-2-enoyl)piperazin-1-yl]-8-fluoro-7-(3-hydroxynaphthalen-1-yl)quinazolin-2-yl}oxy)ethyl]pyrrolidin-3-yl]methoxy}acetamido)-3,3-dimethylbutanoyl]-4-hydroxy-N-[(1S)-1-[4-(4-methyl-1,3-thiazol-5-yl)phenyl]ethyl]pyrrolidine-2-carboxamide]: the Dmax on HiBit-KRAS^G12C [1] (setting [5]) and on HiBit-KRAS^G12C [2] (setting [6]) was 35 to 70% each time. Also, the figures for the DC50 at HiBit-KRAS^G12C [1] (setting [3]) and at HiBit-KRAS^G12C [2] (setting [4]) were 100 to 1000 nM and above 1000 nM, respectively.

With `C=CC(=O)N1CCN(c2nc(OCCN3CCC(COc4cc([C@@H](C(=O)N5C[C@H](O)C[C@H]5C(=O)N[C@@H](C)c5ccc(-c6ccnn6C)cc5)C(C)C)on4)CC3)nc3c(F)c(-c4cc(O)cc5ccccc45)c(Cl)cc23)C[C@@H]1CC#N` [Compound 159, (2S,4R)-1-[(2S)-2-[3-({1-[2-({6-chloro-4-[(3S)-3-(cyanomethyl)-4-(prop-2-enoyl)piperazin-1-yl]-8-fluoro-7-(3-hydroxynaphthalen-1-yl)quinazolin-2-yl}oxy)ethyl]piperidin-4-yl}methoxy)-1,2-oxazol-5-yl]-3-methylbutanoyl]-4-hydroxy-N-[(1S)-1-[4-(1-methyl-1H-pyrazol-5-yl)phenyl]ethyl]pyrrolidine-2-carboxamide], the DC50 at HiBit-KRAS^G12C [1] (setting [3]) and on HiBit-KRAS^G12C [2] (setting [4]) was above 1000 nM each time.

For the compound `C=CC(=O)N1CCN(c2nc(OCCN3CCC(F)(COc4cc([C@H](C(=O)N5C[C@H](O)C[C@H]5C(=O)N[C@@H](C)c5ccc(-c6scnc6C)cc5)C(C)C)on4)CC3)nc3c(F)c(-c4cc(O)cc5ccccc45)c(Cl)cc23)C[C@@H]1CC#N` [Compound 133, (2S,4R)-1-[(2R)-2-[3-({1-[2-({6-chloro-4-[(3S)-3-(cyanomethyl)-4-(prop-2-enoyl)piperazin-1-yl]-8-fluoro-7-(3-hydroxynaphthalen-1-yl)quinazolin-2-yl}oxy)ethyl]-4-fluoropiperidin-4-yl}methoxy)-1,2-oxazol-5-yl]-3-methylbutanoyl]-4-hydroxy-N-[(1S)-1-[4-(4-methyl-1,3-thiazol-5-yl)phenyl]ethyl]pyrrolidine-2-carboxamide], the Dmax at HiBit-KRAS^G12C [1] (setting [5]) and at HiBit-KRAS^G12C [2] (setting [6]) was above 70% throughout. The DC50 at HiBit-KRAS^G12C [1] (setting [3]) is below 100 nM; on HiBit-KRAS^G12C [2] (setting [4]), 100 to 1000 nM.

In the case of `C=CC(=O)N1CCN(c2nc(OCCN3CCC(COc4cc([C@@H](C(=O)N5C[C@H](O)C[C@H]5C(=O)N[C@@H](C)c5ccc(-c6scnc6C)cc5)C(C)C)on4)CC3)nc3c(F)c(-c4cc(O)cc5ccccc45)c(Cl)cc23)C[C@@H]1CC#N` [Compound 172, (2S,4R)-1-[(2S)-2-[3-({1-[2-({6-chloro-4-[(3S)-3-(cyanomethyl)-4-(prop-2-enoyl)piperazin-1-yl]-8-fluoro-7-(3-hydroxynaphthalen-1-yl)quinazolin-2-yl}oxy)ethyl]piperidin-4-yl}methoxy)-1,2-oxazol-5-yl]-3-methylbutanoyl]-4-hydroxy-N-[(1S)-1-[4-(4-methyl-1,3-thiazol-5-yl)phenyl]ethyl]pyrrolidine-2-carboxamide], the DC50 on HiBit-KRAS^G12C [1] (setting [3]) and at HiBit-KRAS^G12C [2] (setting [4]) was above 1000 nM each time.

For `C=CC(=O)N1CCN(c2nc(OCCN3CCC4(CC3)CN(CC(=O)N[C@H](C(=O)N3C[C@H](O)C[C@H]3C(=O)N[C@@H](C)c3ccc(-c5scnc5C)cc3)C(C)(C)C)C4)nc3c(F)c(-c4cc(O)cc5ccccc45)c(Cl)cc23)C[C@@H]1CC#N` [Compound 145, (2S,4R)-1-[(2S)-2-(2-{7-[2-({6-chloro-4-[(3S)-3-(cyanomethyl)-4-(prop-2-enoyl)piperazin-1-yl)-8-fluoro-7-(3-hydroxynaphthalen-1-yl)quinazolin-2-yl}oxy)ethyl]-2,7-diazaspiro[3.5]nonan-2-yl}acetamido)-3,3-dimethylbutanoyl]-4-hydroxy-N-[(1S)-1-[4-(4-methyl-1,3-thiazol-5-yl)phenyl]ethyl]pyrrolidine-2-carboxamide], the Dmax at HiBit-KRAS^G12C [1] (SW1573, read-out: KRas^G12C-HiBiT (SW1573; 0.5% DMSO) Dmax**, SW1573 HiBit-KRas^G12C, 0.5% DMSO) was above 70%; on HiBit-KRAS^G12C [2] (MIA PaCa-2, read-out: KRas^G12C-HiBiT (MiaPaCa; 0.5% DMSO) DMax, MiaPaCa-2 HiBit-KRas^G12C cells, 0.5% DMSO), 35 to 70%. For the same compound, the DC50 on HiBit-KRAS^G12C [1] (setting [3]) and on HiBit-KRAS^G12C [2] (setting [4]) was 100 to 1000 nM in each case.

Turning to `C=C(F)C(=O)N1CCN(c2nc(OCCN3CCC(COc4cc([C@H](C(=O)N5C[C@H](O)C[C@H]5C(=O)N[C@@H](C)c5ccc(-c6ccnn6C)cc5)C(C)C)on4)CC3)nc3c(F)c(-c4cc(O)cc5ccccc45)c(Cl)cc23)C[C@@H]1CC#N` (atropisomer, axis not shown) [Compound 141, (2S,4R)-1-[(2R)-2-[3-({1-[2-({6-chloro-4-[(3S)-3-(cyanomethyl)-4-(2-fluoroprop-2-enoyl)piperazin-1-yl]-8-fluoro-7-(3-hydroxynaphthalen-1-yl)quinazolin-2-yl}oxy)ethyl]-piperidin-4-yl}methoxy)-1,2-oxazol-5-yl]-3-methylbutanoyl]-4-hydroxy-N-[(1S)-1-[4-(1-methyl-1H-pyrazol-5-yl)phenyl]ethyl]pyrrolidine-2-carboxamide], the Dmax at HiBit-KRAS^G12C [1] (setting [5]) and on HiBit-KRAS^G12C [2] (setting [6]) was above 70% each time. Moreover, the DC50 on HiBit-KRAS^G12C [1] (setting [3]) is below 100 nM; at HiBit-KRAS^G12C [2] (setting [4]), 100 to 1000 nM.

Turning to `C=CC(=O)N1CCN(c2nc(OCCN3CCC(COCC(=O)N[C@H](C(=O)N4C[C@H](O)C[C@H]4C(=O)N[C@@H](C)c4ccc(-c5scnc5C)cc4)C(C)(C)C)CC3)nc3c(F)c(-c4cc(O)cc5ccccc45)c(Cl)cc23)CC1` [Compound 63, (2S,4R)-1-[(2S)-2-(2-{[1-(2-{[6-chloro-8-fluoro-7-(3-hydroxynaphthalen-1-yl)-4-[4-(prop-2-enoyl)piperazin-1-yl]quinazolin-2-yl]oxy}ethyl)piperidin-4-yl]methoxy}acetamido)-3,3-dimethylbutanoyl]-4-hydroxy-N-[(1S)-1-[4-(4-methyl-1,3-thiazol-5-yl)phenyl]ethyl]pyrrolidine-2-carboxamide], the Dmax on HiBit-KRAS^G12C [1] (SW1573, SW1573 HiBit-KRas^G12C, 0.1% DMSO, read-out: KRas^G12C-HiBit (SW1573; 0.1% DMSO) Dmax**) is 35 to 70%; on HiBit-KRAS^G12C [1] (setting [5]), above 70%; at HiBit-KRAS^G12C [2] (MIA PaCa-2, MiaPaCa-2 HiBit-KRas^G12C cells, 0.1% DMSO, read-out: KRas^G12C-HiBiT (MiaPaCa; 0.1% DMSO) DMax) it was 35 to 70%; at HiBit-KRAS^G12C [2] (setting [6]), 35 to 70%. For the same compound, the DC50 on HiBit-KRAS^G12C [1] (setting [7]) is 100 to 1000 nM.

On to `C=CC(=O)N1CCN(c2nc(O[C@H](C)CN3CCN(CCOC4CCN(CC(=O)N[C@H](C(=O)N5C[C@H](O)C[C@H]5C(=O)N[C@@H](C)c5ccc(-c6scnc6C)cc5)C(C)(C)C)CC4)CC3)nc3c(F)c(-c4cc(O)cc5ccccc45)c(Cl)cc23)CC1` [Compound 55, (2S,4R)-1-[(2S)-2-{2-[4-(2-{4-[(2R)-2-{[6-chloro-8-fluoro-7-(3-hydroxynaphthalen-1-yl)-4-[4-(prop-2-enoyl)piperazin-1-yl]quinazolin-2-yl]oxy}propyl]piperazin-1-yl}ethoxy)piperidin-1-yl]acetamido}-3,3-dimethylbutanoyl]-4-hydroxy-N-[(1S)-1-[4-(4-methyl-1,3-thiazol-5-yl)phenyl]ethyl]pyrrolidine-2-carboxamide], for which, at HiBit-KRAS^G12C [1] (SW1573, read-out: KRas^G12C-HiBit (SW1573; 0.1% DMSO) Dmax**, SW1573 HiBit-KRas^G12C, 0.1% DMSO), the Dmax was below 35%. Moreover, the DC50 at HiBit-KRAS^G12C [1] (setting [7]) was 100 to 1000 nM; on HiBit-KRAS^G12C [2] (read-out: KRas^G12C-HiBiT (MiaPaCa; 0.1% DMSO) IC50, MiaPaCa-2 HiBit-KRas^G12C cells, 0.1% DMSO), above 1000 nM.
